Source: US20250205356A1, “POLYMER-DRUG CONJUGATES” (PRIMELINK BIOTHERAPEUTICS (SHENZHEN) CO., LTD, priority 2022, published 2025)

Tests used:
NCI-N87 cell xenograft = assay: In vivo therapeutic efficacy in NCI-N87 cell xenograft mouse model; set-up: species or system BALB/c female nude mice; conditions: 5 mg/kg, IV, BIW*3
Experimental: On day 0, NCI-N87 cells (1×10^7 with 1:1 Matrigel) suspended in 0.2 mL PBS supplement with 50% (v/v) matrigel were injected subcutaneously in the right upper flank of 6- to 8-wk-old BALB/c female nude mice (purchased from Beijing Vital River Laboratory Animal Technology Co., Ltd). On day 6, mice were randomized to 8 groups (n=6) when the average tumor volume was 178 mm^3. Treatments were initiated on the very same day (defined as PG-D0). Mice at Trodelvy group received 5.0 mg/kg (i.v., BIW) for 3 wk; mice at the ADC-5 treatment groups were injected with 1.0, 2.5, and 5.0 mg/kg (i.v., BIW) ADC-5 for 3 wk; mice at ADC-6 treatment groups were injected (i.v.) with 1.0 and 2.5 mg/kg ADC-6 weekly (QW) for three doses, or 5.0 mg/kg (single dose at day PG-D0). The tumor volumes and body weights were measured and recorded twice a week. On the termination day 28 (defined as PG-D28), tumor weight were dissected and measured. Tumor growth inhibition rate (%) was calculated as (TVCR−TVTR)/TVCR (%), where TVCR and TVTR are the relative tumor volumes of the vehicle control group and the experimental groups, respectively. Mice were euthanized and deemed to have succumbed to disease once tumors grew greater than 2,500 mm^3. GraphPad Prism 6.0 Software was used for statistical analysis with a one-way ANOVA.

NCI-N87 cells = assay: In vitro cytotoxic assay of anti-Trop2 ADCs (CellTiter-Glo); assay type: cell-based
Experimental: (§1) In brief, 5,000 cells/well were platted in white clear 96-well assay plates (Cat. No. 6005182, PerkinElmer) (excluding edge wells, which contained medium only) in 90 μL basic culture medium (McCoy's 5a medium for SKBR-3 cells, RPMI-1640 medium for NCI-N87 cells, EMEM medium for MCF-7 cells, and Leibovitz's L-15 medium for MDA-MB-468 cells) containing 10% FBS, I % Penicillin-Streptomycin Solution (BL505A, Biosharp Life Sciences), and 2 mM L-Glutamine (Cat. No. 25030081, ThermoFisher) and were grown at 37° C. in a humidified incubator at 5% CO2 atmosphere. […] After additional 72-hour incubation, plates were removed from incubator and equilibrated to room temperature. After approximately 30 mins, 50 μL of CellTiter-Glo® 2.0 Luminescent Cell Viability Reagent (Cat. No. G7573, Promega) were added to each well. After shaking the plates at 450 rpm for 3 mins followed by 10-min incubation without shaking, luminescence was measure on the Envision plate reader (Equipment No. 2104, PerkinElmer) with integration time of 250 ms per well. Curves of luminescence versus ADC concentration (μM) were fitted with GraphPad Prism Software.

MDA-MB-468 cells = assay: as above; assay type: cell-based
Experimental: as §1

MCF-7 cells = assay: as above; assay type: cell-based; conditions: for Bottom (%): curve fit bottom
Experimental: as §1

SKBR-3 cells = assay: as above; assay type: cell-based; conditions: for Bottom (%): curve fit bottom; for Top (%): curve fit top
Experimental: as §1

[1] = system: SKBR-3, NCI-N87, MCF-7, and MDA-MB-468 cells; assay: In vitro cytotoxic assays of anti-Trop2 ADCs, statements on all test cell lines; assay type: cell-based; conditions: four Trop-2 expressing cell lines, FIG. 6
Experimental: Cytotoxicity of exemplary free linker-payloads (Compounds 2, 3 and 4), free Trop2 antibodies (Trop2-1, Trop2-2, Datopotamab, and Sacituzumab), exemplary anti-Trop2 ADCs (ADC-4, ADC-5, ADC-6, ADC-7, ADC-8 and ADC-9) and Trodelvy (an anti-Trop2 ADC approved by FDA) as positive control was evaluated on SKBR-3 cells (Breast cancer, ATCC No. HTB30), NCI-N87 cells (Gastric cancer, ATCC No. CRL-5822), MCF-7 cells (Breast cancer, ATCC No. HTB-22), and MDA-MB-468 cells (Breast cancer, ATCC No. HTB-132).
as §1, with “After” for “After additional 72-hour incubation, plates were removed from incubator and equilibrated to room temperature. After approximately 30 mins, 50 μL of CellTiter-Glo® 2.0 Luminescent Cell Viability Reagent (Cat. No. G7573, Promega) were added to each well. After”

[2] = system: Trop2 positive SKBR-3 cells; assay: Antibody mediated internalization in Trop2 expressing tumor cells, FACS; assay type: cell-based; conditions: 100 nM
Experimental: The Trop2 positive cell line SKBR-3 cells (Breast cancer, ATCC No. HTB30) were used for the following internalization assay. The culture conditions are the same as in Example 21.
(§2) Cells were harvested with 0.25% Trysin/EDTA (T1320, Solarbio) and adjusted the cell concentration to 4×10^6 cells/mL with 1×PBS containing 1% FBS buffer. 100 μL cells per well were then plated in the 96-well cell culture plates and incubated with Trop2 antibodies Trop2-1, Trop2-2, Datopotamab, and Sacituzumab, as well as exemplary anti-Trop2 ADCs (ADC-4, ADC-5, ADC-6, ADC-7, ADC-8 and ADC-9) at final concentration 100 nM for seven time points (0, 0.5, 2, 4, 8, 16, and 24 hours). The mixtures were incubated at 4° C. in an atmosphere of 5% CO2 in air. At specific time points, cells were immediately washed twice and suspended in 100 μL cold wash buffer containing 2% paraformaldehyde for 30 mins. Cells were washed twice and then incubated with 1×PE anti-human IgG Fc Antibody (Cat. No. 366904, Biolegend) at 4° C. and 5% CO2 for another one hour. After the two-step washing by washing buffer, cells were re-suspended in 100 μL FACS buffer, CytoFlex Cytometry (Beckman Coulter) was used to detect the fluorescent signals of cells. The internalization ratio at several time points were calculated as the missing rate of MFI values at specific time point in that at 0 hours. Curves of internalization rate versus incubation time (hours) were plotted with the Graphpad Prism Software.

[3] = system: HER2 positive NCI-N87 cells; assay: Antibody mediated internalization in HER2 expressing tumor cells, FACS; assay type: cell-based; conditions: 100 nM
Experimental: (§3) The culture conditions of two cell lines are the same as in Example 18.
as §2, with “(Tl 320,” for “(T1320,”, “100 μL cells per well were then plated in the 96-well cell culture plates and incubated with Trop2 antibodies Trop2-1, Trop2-2, Datopotamab, and Sacituzumab, as well as exemplary anti-Trop2 ADCs (ADC-4, ADC-5, ADC-6, ADC-7, ADC-8 and ADC-9) at final concentration 100 nM for seven time points (0, 0.5, 2, 4, 8, 16, and 24 hours).” left out, “median fluorescence intensity (MFI)” for “MFI”

[4] = system: HER2 positive SKBR-3 cells; assay: as above; assay type: cell-based; conditions: 100 nM
Experimental: as §3
as §2, with “(Tl 320,” for “(T1320,”, “100 μL cells per well were then plated in the 96-well cell culture plates and incubated with Trop2 antibodies Trop2-1, Trop2-2, Datopotamab, and Sacituzumab, as well as exemplary anti-Trop2 ADCs (ADC-4, ADC-5, ADC-6, ADC-7, ADC-8 and ADC-9) at final concentration 100 nM for seven time points (0, 0.5, 2, 4, 8, 16, and 24 hours).” left out, “median fluorescence intensity (MFI)” for “MFI”

[5] = 72-hour incubation, read-out: ReIC50

Trodelvy
TGI (%) in days after administration, Day 3 (NCI-N87 cell xenograft; Day 3): 44.83%
TGI (%) in days after administration, Day 7 (NCI-N87 cell xenograft; Day 7): 44.43%
TGI (%) in days after administration, Day 10 (NCI-N87 cell xenograft; Day 10): 39.67%
TGI (%) in days after administration, Day 14 (NCI-N87 cell xenograft; Day 14): 42.59%
TGI (%) in days after administration, Day 17 (NCI-N87 cell xenograft; Day 17): 49.05%
TGI (%) in days after administration, Day 21 (NCI-N87 cell xenograft; Day 21): 55.07%
TGI (%) in days after administration, Day 24 (NCI-N87 cell xenograft; Day 24): 55.32%
TGI (%) in days after administration, Day 28 (NCI-N87 cell xenograft; Day 28): 54.53%
IC50 (NCI-N87 cells; [5]): 5.39 nM
Bottom (%) (NCI-N87 cells; curve fit bottom): 0%
Top (%) (NCI-N87 cells; curve fit top): 76.68%
IC50 (MDA-MB-468 cells; [5]): 2.33 nM
Bottom (%) (MDA-MB-468 cells; curve fit bottom): 0%
Top (%) (MDA-MB-468 cells; curve fit top): 79.13%
IC50 (MCF-7 cells; [5]): 40.5 nM
Bottom (%) (MCF-7 cells): 0%
Top (%) (MCF-7 cells; curve fit top): 35.94%
IC50 (SKBR-3 cells; [5]): 0.846 nM
Bottom (%) (SKBR-3 cells): 0%
Top (%) (SKBR-3 cells): 78.16%

Sacituzumab: free Trop2 antibody
cytotoxic activity on the test cell lines [1]: no target cell killing effect
Bottom (%) (MCF-7 cells): 0%
Bottom (%) (SKBR-3 cells): 3.225%
Top (%) (SKBR-3 cells): 9.741%
MFI value of internalization assay ([2]; 0 h): 216386
MFI value of internalization assay ([2]; 0.5 h): 205198.9
MFI value of internalization assay ([2]; 2 h): 90975.5
MFI value of internalization assay ([2]; 4 h): 75749.9
MFI value of internalization assay ([2]; 8 h): 47695.7
MFI value of internalization assay ([2]; 16 h): 33528.1
MFI value of internalization assay ([2]; 24 h): 32475

T-DM1
MFI value of internalization assay ([3]; 0 h): 455385
MFI value of internalization assay ([3]; 0.5 h): 452742.7
MFI value of internalization assay ([3]; 2 h): 475100.1
MFI value of internalization assay ([3]; 4 h): 369328.5
MFI value of internalization assay ([3]; 8 h): 345220.2
MFI value of internalization assay ([3]; 16 h): 362105.3
MFI value of internalization assay ([3]; 24 h): 317532.7
MFI value of internalization assay ([4]; 0 h): 89030.9
MFI value of internalization assay ([4]; 0.5 h): 54683.9
MFI value of internalization assay ([4]; 2 h): 51777.7
MFI value of internalization assay ([4]; 4 h): 39019.6
MFI value of internalization assay ([4]; 8 h): 31583.1
MFI value of internalization assay ([4]; 16 h): 29393.7
MFI value of internalization assay ([4]; 24 h): 20671.3

B1: Datopotamab: native human IgG1 antibody of DS-1062 from Daiichi Sankyo, free antibody control (antibody, chains of the INN, looked up, V domains shown)
VH: QVQLVQSGAEVKKPGASVKVSCKASGYTFTTAGMQWVRQAPGQGLEWMGWINTHSGVPKYAEDFKGRVTISADTSTSTAYLQLSSLKSEDTAVYYCARSGFGSSYWYFDVWGQGTLVTVSS
VL: DIQMTQSPSSLSASVGDRVTITCKASQDVSTAVAWYQQKPGKAPKLLIYSASYRYTGVPSRFSGSGSGTDFTLTISSLQPEDFAVYYCQQHYITPLTFGQGTKLEIK
MFI value of internalization assay ([2]; 0 h): 237324.4
MFI value of internalization assay ([2]; 0.5 h): 112896.1
MFI value of internalization assay ([2]; 2 h): 41192.3
MFI value of internalization assay ([2]; 4 h): 33418.6
MFI value of internalization assay ([2]; 8 h): 19928.3
MFI value of internalization assay ([2]; 16 h): 14134.9
MFI value of internalization assay ([2]; 24 h): 8497.3
